Consider one molecule from patent publication EP4670739A1, “ALBUMIN CONJUGATE, METHOD FOR PRODUCING SAME, AND COMPOSITION FOR TARGETING, DIAGNOSING, OR TREATING CANCER COMPRISING SAME” (Kytecbio Co., Ltd., priority 2023, dated 2024).

The experiment is described as follows: ROS production according to lysine concentration. To be noted: 10 µM B3 mixed with about 1.0 mM monomeric lysine, PBS pH 7.4, light of about 530 nm. Here is the method: • i) 1.0 mM lysine (hereinafter, Lys) was mixed in PBS buffer solution (pH 7.4) and irradiated with light of about 530 nm. The fluorescence generated over time was measured using a Scinco FS-2, and results thereof are shown in FIG. 7A. • ii) The result of mixing 10 µM boron-containing compound B3 instead of the 1.0 mM lysine (Lys) is shown in FIG. 7B, iii) the result of mixing 10 µM boron-containing compound B3 and 0.1 mM lysine (Lys) instead of the 1.0 mM lysine (Lys) is shown in FIG. 7C, and iv) the result of mixing 10 µM boron-containing compound B3 and 1.0 mM lysine (Lys) instead of the 1.0 mM lysine (Lys) is shown in FIG. 7D.

Structures are written as SMILES.

As for `O=Cc1cc2ccccc2cc1NCc1ccccc1B(O)O` [B3], the “reactive oxygen species generated” value was “relatively large amount”.
